# Measured values: patent publication US11357779B2 (G1 Therapeutics, Inc., priority 2018, dated 2022)
# Assay: Adverse events by CTCAE grade and frequency, all dosing cohorts
# Type: in vivo, human
# Text: Patients were enrolled into 1 of 2 parallel, independently operating, dose-escalation dosing cohorts with Form B of Compound II administered continuously either once daily (QD) or twice daily (BID) with food with fixed-dose fulvestrant (intramuscularly every 14 days for the first three injections and then every 28 days). Pre- or perimenopausal patients also received goserelin for the duration of study treatment. A […] agonist was started at least 28 days before the first dose of Form B, and those patients who were taking another LHRH agonist were switched to goserelin on Day 1. Patients were split into […] cohorts providing once a day (QD) dosing of 200 mg, 300 mg, 400 mg, 500 mg, or 650 mg of Form B, or twice a day (BID) dosing of 100 mg, 150 mg, or 200 mg of Form B. The second dose in BID cohorts was not administered in the evening until at least 12 hours after the initial morning dose of Form B. The dosing cohorts for Form B of Compound II are provided in Table 1.
# [1] = Dose 100 mg BID, adverse event frequency
# [2] = Dose 150 mg BID, adverse event frequency
# [3] = Dose 200 mg BID, adverse event frequency
# [4] = Dose 200 mg QD, adverse event frequency
# [5] = Dose 300 mg QD, adverse event frequency
# [6] = Dose 400 mg QD, adverse event frequency
# [7] = Dose 500 mg QD, adverse event frequency
# [8] = Dose 650 mg QD, adverse event frequency
# [9] = Total, all dosing cohorts, All Grades, frequency
# [10] = Total, all dosing cohorts, CTCAE Grade 1, frequency
# [11] = Total, all dosing cohorts, CTCAE Grade 2, frequency
# [12] = Total, all dosing cohorts, CTCAE Grade 3, frequency
# [13] = Total, all dosing cohorts, CTCAE Grade 4, frequency
structure (smiles),measurement,setting,value
CC(C)N1CCN(c2ccc(Nc3ncc4cc5n(c4n3)C3(CCCCC3)CNC5=O)nc2)CC1 [Form B],ALT increase,[1],0
same,AST increased,[1],0
same,Anemia,[1],2
same,BUN increased,[1],0
same,Diarrhea,[1],1
same,Fatigue,[1],1
same,Febrile neutropenia,[1],0
same,GGT increased,[1],0
same,Hematuria,[1],1
same,Leukopenia,[1],3
same,Lymphopenia,[1],0
same,Metrorrhagia,[1],0
same,Nausea,[1],2
same,Neutropenia,[1],4
same,SCr increased,[1],1
same,Stomatitis,[1],0
same,Thrombocytopenia,[1],1
same,Vomiting,[1],0
same,ALT increase,[2],0
same,AST increased,[2],0
same,Anemia,[2],1
same,BUN increased,[2],0
same,Diarrhea,[2],2
same,Fatigue,[2],1
same,Febrile neutropenia,[2],1
same,GGT increased,[2],0
same,Hematuria,[2],1
same,Leukopenia,[2],3
same,Lymphopenia,[2],0
same,Metrorrhagia,[2],1
same,Nausea,[2],1
same,Neutropenia,[2],3
same,SCr increased,[2],0
same,Stomatitis,[2],1
same,Thrombocytopenia,[2],1
same,Vomiting,[2],1
same,ALT increase,[3],0
same,AST increased,[3],0
same,Anemia,[3],0
same,BUN increased,[3],0
same,Diarrhea,[3],1
same,Fatigue,[3],1
same,Febrile neutropenia,[3],0
same,GGT increased,[3],0
same,Hematuria,[3],0
same,Leukopenia,[3],1
same,Lymphopenia,[3],0
same,Metrorrhagia,[3],0
same,Nausea,[3],1
same,Neutropenia,[3],2
same,SCr increased,[3],0
same,Stomatitis,[3],0
same,Thrombocytopenia,[3],0
same,Vomiting,[3],0
same,ALT increase,[4],0
same,AST increased,[4],0
same,Anemia,[4],3
same,BUN increased,[4],1
same,Diarrhea,[4],1
same,Fatigue,[4],0
same,Febrile neutropenia,[4],0
same,GGT increased,[4],0
same,Hematuria,[4],1
same,Leukopenia,[4],4
same,Lymphopenia,[4],1
same,Metrorrhagia,[4],0
same,Nausea,[4],0
same,Neutropenia,[4],4
same,SCr increased,[4],0
same,Stomatitis,[4],0
same,Thrombocytopenia,[4],0
same,Vomiting,[4],0
same,ALT increase,[5],0
same,AST increased,[5],0
same,Anemia,[5],1
same,BUN increased,[5],1
same,Diarrhea,[5],2
same,Fatigue,[5],1
same,Febrile neutropenia,[5],0
same,GGT increased,[5],0
same,Hematuria,[5],1
same,Leukopenia,[5],2
same,Lymphopenia,[5],0
same,Metrorrhagia,[5],0
same,Nausea,[5],2
same,Neutropenia,[5],3
same,SCr increased,[5],0
same,Stomatitis,[5],0
same,Thrombocytopenia,[5],1
same,Vomiting,[5],2
same,ALT increase,[6],1
same,AST increased,[6],1
same,Anemia,[6],2
same,BUN increased,[6],0
same,Diarrhea,[6],2
same,Fatigue,[6],2
same,Febrile neutropenia,[6],0
same,GGT increased,[6],1
same,Hematuria,[6],1
same,Leukopenia,[6],0
same,Lymphopenia,[6],0
same,Metrorrhagia,[6],0
same,Nausea,[6],3
same,Neutropenia,[6],3
same,SCr increased,[6],0
same,Stomatitis,[6],0
same,Thrombocytopenia,[6],1
same,Vomiting,[6],3
same,ALT increase,[7],1
same,AST increased,[7],0
same,Anemia,[7],2
same,BUN increased,[7],0
same,Diarrhea,[7],1
same,Fatigue,[7],1
same,Febrile neutropenia,[7],0
same,GGT increased,[7],0
same,Hematuria,[7],0
same,Leukopenia,[7],1
same,Lymphopenia,[7],0
same,Metrorrhagia,[7],0
same,Nausea,[7],3
same,Neutropenia,[7],3
same,SCr increased,[7],1
same,Stomatitis,[7],0
same,Thrombocytopenia,[7],3
same,Vomiting,[7],1
same,ALT increase,[8],0
same,AST increased,[8],0
same,Anemia,[8],0
same,BUN increased,[8],0
same,Diarrhea,[8],4
same,Fatigue,[8],1
same,Febrile neutropenia,[8],0
same,GGT increased,[8],0
same,Hematuria,[8],0
same,Leukopenia,[8],2
same,Lymphopenia,[8],0
same,Metrorrhagia,[8],0
same,Nausea,[8],3
same,Neutropenia,[8],2
same,SCr increased,[8],0
same,Stomatitis,[8],0
same,Thrombocytopenia,[8],0
same,Vomiting,[8],5
same,ALT increase,[9],2
same,AST increased,[9],1
same,Anemia,[9],11
same,BUN increased,[9],2
same,Diarrhea,[9],14
same,Fatigue,[9],8
same,Febrile neutropenia,[9],1
same,GGT increased,[9],1
same,Hematuria,[9],5
same,Leukopenia,[9],16
same,Lymphopenia,[9],1
same,Metrorrhagia,[9],1
same,Nausea,[9],15
same,Neutropenia,[9],24
same,SCr increased,[9],2
same,Stomatitis,[9],1
same,Thrombocytopenia,[9],7
same,Vomiting,[9],12
same,ALT increase,[10],1
same,AST increased,[10],0
same,Anemia,[10],3
same,BUN increased,[10],2
same,Diarrhea,[10],6
same,Fatigue,[10],5
same,Febrile neutropenia,[10],0
same,GGT increased,[10],0
same,Hematuria,[10],5
same,Leukopenia,[10],4
same,Lymphopenia,[10],0
same,Metrorrhagia,[10],0
same,Nausea,[10],8
same,Neutropenia,[10],6
same,SCr increased,[10],2
same,Stomatitis,[10],0
same,Thrombocytopenia,[10],5
same,Vomiting,[10],5
same,ALT increase,[11],1
same,AST increased,[11],1
same,Anemia,[11],2
same,BUN increased,[11],0
same,Diarrhea,[11],8
same,Fatigue,[11],3
same,Febrile neutropenia,[11],0
same,GGT increased,[11],1
same,Hematuria,[11],0
same,Leukopenia,[11],9
same,Lymphopenia,[11],1
same,Metrorrhagia,[11],1
same,Nausea,[11],7
same,Neutropenia,[11],7
same,SCr increased,[11],0
same,Stomatitis,[11],1
same,Thrombocytopenia,[11],2
same,Vomiting,[11],3
same,ALT increase,[12],0
same,AST increased,[12],0
same,Anemia,[12],1
same,BUN increased,[12],0
same,Diarrhea,[12],0
same,Fatigue,[12],0
same,Febrile neutropenia,[12],1
same,GGT increased,[12],0
same,Hematuria,[12],0
same,Leukopenia,[12],3
same,Lymphopenia,[12],0
same,Metrorrhagia,[12],0
same,Nausea,[12],0
same,Neutropenia,[12],9
same,SCr increased,[12],0
same,Stomatitis,[12],0
same,Thrombocytopenia,[12],0
same,Vomiting,[12],0
same,ALT increase,[13],0
same,AST increased,[13],0
same,Anemia,[13],0
same,BUN increased,[13],0
same,Diarrhea,[13],0
same,Fatigue,[13],0
same,Febrile neutropenia,[13],0
same,GGT increased,[13],0
same,Hematuria,[13],0
same,Leukopenia,[13],0
same,Lymphopenia,[13],0
same,Metrorrhagia,[13],0
same,Nausea,[13],0
same,Neutropenia,[13],2
same,SCr increased,[13],0
same,Stomatitis,[13],0
same,Thrombocytopenia,[13],0
same,Vomiting,[13],0
